From patent publication US12448632B2, “Guanidine degradation enzyme and methods of use” (Alliance for Sustainable Energy, LLC, priority 2020, dated 2025)

Columns and labels:
Synechococcus 7942 [1] = assay type: cell-based, Synechococcus elongatus PCC 7942
Protocol: (§1) Guanidine tolerance and degradation test. For guanidine tolerance test, cyanobacterial strains were grown in 20 mL mBG11 medium supplemented with 0-1 mM guanidine and 50 mM NaHCO3. For guanidine degradation test, cyanobacterial strains were grown in 10 mL mBG11 free of nitrate while supplemented with 50 mM NaHCO3 and 5 mM or 1 mM guanidine chloride, under constant light of 50 μE m^−2 s^−1 on a rotary shaker at 150 rpm and 30° C. Every day, 1 mL of culture was sampled for reading OD730 and then transferred into an Eppendorf tube and centrifuged at 17000×g at room temperature for 2 min. The supernatants were stored at −20° C. for later analysis of guanidine.

GD7942 (+sll1077) = assay: Guanidine tolerance test, cell growth; assay type: cell-based, Synechococcus elongatus PCC 7942
Protocol: as §1, with “For guanidine tolerance test, cyanobacterial strains were grown in 20 mL mBG11 medium supplemented with 0-1 mM guanidine and 50 mM NaHCO3.” left out

Δsll1077 strain (PB805W) = assay: Growth in nitrate-deprived medium with guanidine; assay type: cell-based, Synechocystis sp. PCC 6803; details: guanidine-supplemented (5 mM) versus nitrogen-deprived conditions
Protocol: as §1

Synechococcus 7942 [2] = assay: Cell growth with urea in culture medium; assay type: cell-based, Synechococcus elongatus PCC 7942; details: 5 mM urea; nitrate-deprived or nitrate-replete conditions

Compound | guanidine concentration at which cell growth was already inhibited (Synechococcus 7942 [1]) [mM] | cell growth (GD7942 (+sll1077); 1 mM guanidine in culture medium) | cell growth (GD7942 (+sll1077); 2 mM guanidine in culture medium) | cell growth (Δsll1077 strain (PB805W)) | impact on cell growth (Synechococcus 7942 [2])
N=C(N)N [guanidine] | 0.3 | not apparently repressed | only slightly inhibited | severely inhibited | 
NC(N)=O [urea] |  |  |  |  | did not show any apparent impact on the cell growth
